Test results reported in ChEMBL document CHEMBL1201862, “PubChem BioAssay data set” (2004).
Active and inactive are the calls of the source. Rule as the data show it, for most assays here: actives have a measured EC50 and inactives only a lower limit.

Assays:
[1] = inhibitors of firefly luciferase expression or activity, dose response, H4 neuroglioma cells, luminescence (AID 1990); format: functional, cell-based
BJ [2] = experiment: cytotoxicity toward BJ-TERT fibroblasts, dose response, cell-based, RAS-independent, luminescence (AID 1933); format: functional; conditions: Homo sapiens
[3] = Luminescence Cell-Based Dose Response HTS to Identify Inhibitors of 5'UTR Stem-Loop Driven Prion Protein mRNA Translation in H4 Neuroglioblastoma Cells. [Related pubchem assays: 1827 (Project Summary), 1813 (Primary HTS)]; format: functional
[4] = inhibitors of SNCA 5'UTR-driven reporter translation, confirmation, H4 neuroglioma cells, luminescence (AID 1988); format: functional, cell-based
BJ [5] = experiment: cells; format: functional, cell-based; conditions: Homo sapiens
BJ [6] = experiment: cytotoxicity toward BJ-TERT-LT-ST fibroblasts, dose response, cell-based, RAS-independent, luminescence (AID 1935); format: functional; conditions: Homo sapiens;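 also: BJ fibroblasts immortalized with TERT plus LT and ST oncogenes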
[7] = cytotoxicity toward DRD oncogenic fibroblasts, dose response, cell-based, non-viral oncogenic, luminescence (AID 1934); format: functional; conditions: Homo sapiens
BJ [8] = experiment: cytotoxicity toward Ras-transformed BJeLR fibroblasts, dose response, cell-based, alamar blue fluorescence, cherrypicked samples (AID 2631); format: functional; conditions: Homo sapiens;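 also: confirmatory dose-response assay in RAS-dependent BJ fibroblasts engineered with TERT, LT and ST, with cytotoxicity read by fluorescence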
HEK293 = experiment: cells; format: functional, cell-based; conditions: Homo sapiens
[9] = molecular target: T1, Nuclear receptor subfamily 0 group B member 1 (Homo sapiens, UniProt P51843); experiment: Luminescence-based cell-based high throughput dose response assay for inhibitors of the orphan nuclear receptor subfamily 0, group B, member 1 (DAX1; NR0B1). [Related pubchem assays (depositor defined):AID504766, AID504790]; format: functional
T1 sequence (P51843 whole entry): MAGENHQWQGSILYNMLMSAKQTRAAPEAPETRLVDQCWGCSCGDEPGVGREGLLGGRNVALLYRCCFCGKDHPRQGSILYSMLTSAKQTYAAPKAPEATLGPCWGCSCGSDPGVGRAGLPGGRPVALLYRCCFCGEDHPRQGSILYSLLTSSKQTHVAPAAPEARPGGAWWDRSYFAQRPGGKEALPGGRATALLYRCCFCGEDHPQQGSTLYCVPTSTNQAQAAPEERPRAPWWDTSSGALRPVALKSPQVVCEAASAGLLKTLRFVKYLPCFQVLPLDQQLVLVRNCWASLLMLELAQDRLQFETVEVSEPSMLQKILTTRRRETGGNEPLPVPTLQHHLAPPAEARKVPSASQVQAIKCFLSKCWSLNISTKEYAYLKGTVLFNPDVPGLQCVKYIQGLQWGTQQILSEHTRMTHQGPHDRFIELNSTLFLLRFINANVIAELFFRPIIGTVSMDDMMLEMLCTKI

[10] = molecular target: T2, Serine/threonine-protein kinase D3 (Homo sapiens, UniProt O94806); format: functional;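 also: determined within a kinase panel screen, with PRKCN as the panel member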
T2 sequence (O94806 whole entry): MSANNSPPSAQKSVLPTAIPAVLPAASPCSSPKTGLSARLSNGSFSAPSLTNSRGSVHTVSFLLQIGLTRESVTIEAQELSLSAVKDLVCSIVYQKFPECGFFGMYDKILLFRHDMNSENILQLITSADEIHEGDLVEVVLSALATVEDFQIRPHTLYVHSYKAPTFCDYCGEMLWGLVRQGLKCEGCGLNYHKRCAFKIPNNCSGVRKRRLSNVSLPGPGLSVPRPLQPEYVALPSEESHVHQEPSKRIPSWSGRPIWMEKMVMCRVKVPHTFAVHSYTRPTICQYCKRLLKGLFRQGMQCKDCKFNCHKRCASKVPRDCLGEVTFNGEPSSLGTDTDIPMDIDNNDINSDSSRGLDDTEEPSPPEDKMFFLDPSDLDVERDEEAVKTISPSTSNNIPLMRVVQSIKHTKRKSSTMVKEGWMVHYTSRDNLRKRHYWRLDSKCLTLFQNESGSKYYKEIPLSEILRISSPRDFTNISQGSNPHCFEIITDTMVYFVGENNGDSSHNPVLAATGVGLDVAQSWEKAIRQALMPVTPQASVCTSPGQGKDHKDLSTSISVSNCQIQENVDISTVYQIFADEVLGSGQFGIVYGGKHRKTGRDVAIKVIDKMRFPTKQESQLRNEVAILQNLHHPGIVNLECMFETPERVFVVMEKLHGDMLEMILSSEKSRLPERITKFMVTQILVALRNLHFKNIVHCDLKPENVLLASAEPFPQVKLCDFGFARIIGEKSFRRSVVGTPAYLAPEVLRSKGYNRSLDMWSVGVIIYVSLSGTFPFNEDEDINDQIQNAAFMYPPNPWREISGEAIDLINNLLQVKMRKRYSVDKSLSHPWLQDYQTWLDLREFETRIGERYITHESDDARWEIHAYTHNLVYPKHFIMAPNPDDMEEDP

[11] = molecular target: Hepatocyte growth factor receptor (Homo sapiens, UniProt P08581); format: functional;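 also: kinase panel profiling across the kinome, with MET as the panel member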
Sequence of Hepatocyte growth factor receptor (P08581 whole entry): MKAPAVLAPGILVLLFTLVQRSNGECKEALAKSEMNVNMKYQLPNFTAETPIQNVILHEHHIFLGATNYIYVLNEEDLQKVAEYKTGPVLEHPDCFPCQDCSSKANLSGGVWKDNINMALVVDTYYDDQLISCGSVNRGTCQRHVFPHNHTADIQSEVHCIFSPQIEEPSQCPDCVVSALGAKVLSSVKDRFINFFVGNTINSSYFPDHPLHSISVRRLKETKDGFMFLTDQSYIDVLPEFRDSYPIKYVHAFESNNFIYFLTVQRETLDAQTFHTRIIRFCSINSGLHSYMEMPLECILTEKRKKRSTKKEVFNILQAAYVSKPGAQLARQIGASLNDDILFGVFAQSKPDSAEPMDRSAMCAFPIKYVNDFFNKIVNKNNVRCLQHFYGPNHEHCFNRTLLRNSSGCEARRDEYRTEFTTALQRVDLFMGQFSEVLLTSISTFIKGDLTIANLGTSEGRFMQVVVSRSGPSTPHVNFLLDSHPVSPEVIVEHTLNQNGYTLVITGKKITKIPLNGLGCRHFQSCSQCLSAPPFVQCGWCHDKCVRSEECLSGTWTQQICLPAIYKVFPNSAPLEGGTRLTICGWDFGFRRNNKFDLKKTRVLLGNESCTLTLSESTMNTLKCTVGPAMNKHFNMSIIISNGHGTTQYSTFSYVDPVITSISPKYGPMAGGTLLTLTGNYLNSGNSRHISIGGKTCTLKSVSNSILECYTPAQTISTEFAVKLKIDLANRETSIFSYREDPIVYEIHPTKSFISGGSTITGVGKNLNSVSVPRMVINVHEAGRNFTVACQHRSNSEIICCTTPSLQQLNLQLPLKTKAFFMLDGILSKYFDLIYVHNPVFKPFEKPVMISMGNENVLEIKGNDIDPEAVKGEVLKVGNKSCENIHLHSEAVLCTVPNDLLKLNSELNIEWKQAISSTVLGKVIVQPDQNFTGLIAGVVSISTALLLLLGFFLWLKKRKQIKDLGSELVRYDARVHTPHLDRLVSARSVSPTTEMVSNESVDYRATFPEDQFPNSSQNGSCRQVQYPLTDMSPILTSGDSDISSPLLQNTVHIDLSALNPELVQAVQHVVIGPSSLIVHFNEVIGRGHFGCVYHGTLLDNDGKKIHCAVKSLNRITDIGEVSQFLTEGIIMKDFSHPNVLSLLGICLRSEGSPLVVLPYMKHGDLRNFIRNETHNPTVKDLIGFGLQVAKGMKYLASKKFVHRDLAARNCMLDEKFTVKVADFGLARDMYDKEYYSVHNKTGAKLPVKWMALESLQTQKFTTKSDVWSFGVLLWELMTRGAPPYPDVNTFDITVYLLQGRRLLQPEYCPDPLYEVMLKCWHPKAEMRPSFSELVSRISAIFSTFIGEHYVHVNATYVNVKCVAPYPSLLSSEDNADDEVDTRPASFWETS

SMILES: CCCc1cc(O)nc(SCC(=O)c2c(N)n(CC(C)C)c(=O)n(C)c2=O)n1
- EC50 [1]: 9.13 µM (active)
- EC50 (BJ [2]): > 150 µM (not active)
- EC50 [3]: 18.1 µM (active)
- EC50 [4]: 12.1 µM (active)
- EC50 (BJ [5]): 9.97 µM (inconclusive)
- EC50 (BJ [6]): > 150 µM (not active)
- EC50 [7]: 10.7 µM (active)
- EC50 (BJ [8]): > 133 µM (inactive)

SMILES: O=C(CN1C(=O)NC2(CCCC2)C1=O)Nc1ccc(OC(F)(F)F)cc1
- IC50 (HEK293): > 67.5 µM (inactive)
- IC50 [9]: > 67.5 µM (inactive)

SMILES: CCCC(=O)Nc1cccc(-c2nc(Nc3ccc4[nH]ncc4c3)c3cc(OCCOC)ccc3n2)c1
- Ki [10]: 1.26 µM (active)
- Ki [11]: 2.51 µM (active)
